Assay results taken from US20260007746A1, “COMPOSITIONS AND METHODS FOR TREATMENT OF INFLAMMATORY DISORDERS” (priority 2020, published 2026).

System: ConA-stimulated splenocytes
Assay: Mitogen proliferative assay (MSC:splenocyte co-culture, BrdU)
Assay type: cell-based, mouse
Settings: mAdMSC:splenocyte 1:20 and 1:10; with or without HA or E-selectin pre-incubation
Experimental: Mitogen proliferative assays were performed as described previously (Yañez et al., 2006; Yanez et al., 2010). Briefly, splenocytes were isolated from C57BL/6 and BALB/c mice spleen cell suspensions by passage through 40-μm nylon cell strainers (Becton Dickinson), followed by red blood lysis with 0.83% ammonium chloride in 0.01 M Tris-HCl buffer pH 7.5 (Sigma-Aldrich). To induce splenocyte proliferation, 1×10^5 splenocytes were resuspended in RPMI 1640 medium (Gibco, Carlsbad, CA, United States) supplemented with 10% FBS (proliferation medium) and treated with 10 μg/ml concanavalin A (ConA) (Sigma-Aldrich). To assess for effect(s) on splenocyte proliferation, MSCs were resuspended in complete medium and seeded in wells together with splenocytes at decreasing ratios of MSC:splenocyte (from 1:1 to 1:100). After 3 days of MSC:splenocyte co-cultures, splenocyte proliferation was measured using an ELISA BrdU colorimetric kit (Roche Diagnostics). In brief, BrdU labeling reagent was added to wells 16 h before determination. Then, cells were fixed, DNA denatured and incubated with an anti-BrdU-POD antibody. After washing and substrate addition, absorbance was measured. In some experiments, UmAdMSCs and FucmAdMSCs, or FuchAdMSCs and FuchBMMSCs, were treated with sialidase from Vibrio cholerae (0.1 U/ml, Roche Diagnostics) to remove terminal sialic acids (i.e., sialUmAdMSCs and sialFucmAdMSCs, or sialFuchAdMSCs and sialFuchBMMSCs). As indicated, mMSCs or hMSCs were cultured for 24 h or 72 h with different concentrations of mE-Ig chimera or of hyaluronic acid (HA, from rooster comb; Sigma-Aldrich) for 24 h or 72 h following described protocols (Burdick et al., 2006; Thankamony and Sackstein, 2011). Briefly, mE-Ig or HA were immobilized on plates. […] In some experiments, cultures of mAdMSCs seeded on E-selectin and/or HA for 72 h were washed, then co-cultured in presence of continuous E-selectin and/or HA with murine splenocytes (at MSC:splenocyte ratio of 1:20) for 72 h in presence of ConA, and splenocyte proliferation was assessed. […]

Compound | proliferation of mitogen-stimulated splenocytes in mAdMSC co-cultures with inhibitor
Cn1cc(CC(N)C(=O)O)c2ccccc21 (racemic) [1-methyl-DL-tryptophan] | significantly rescued the proliferation
CNC(=N)NCCC[C@H](N)C(=O)O [N^G-monomethyl-L-arginine] | significantly rescued the proliferation
NC(=O)c1ccc(-c2nc(-c3ccc4c(c3)OCO4)c(-c3ccccn3)[nH]2)cc1 [SB-431542] | significantly rescued the proliferation
